Consider ten compounds from patent publication US7776855B2, “Antimicrobial oxazolidinone prodrugs” (Janssen Pharmaceutica N.V., priority 2006, dated 2010).

A short description of data set [1]: Solubility of Compound 1 in pH 4 buffer (24 h shaking, HPLC). Type of data set: physicochemical. The following applies: aqueous buffer, thermodynamic from solid, ambient temperature. As for the experimental part:
The solubility of the active drug, Compound 1, was determined in a separate experiment in which an excess of the compound was added to pH 4 buffer. The mixture was shaken with a Burrell wrist action shaker at ambient temperature for 24 hours. Excess solute was removed by centrifugation, the supernatant was diluted with a suitable solvent, and the concentration of the compound was measured using HPLC. The solubility of Compound 1 at pH 4 was 0.007 mg/mL.

In the next data set the test system is S. aureus Smith. In words: Mouse Systemic Lethal Infection Model. Type of data set: in vivo. The following applies: Staphylococcus aureus, female Swiss Webster mice, infected intraperitoneally, three day survival, prodrug ED50 normalized to content of Compound 1. As for the experimental part: Female Swiss Webster mice weighing between 20-25 g were infected intraperitoneally with approximately 5×10^5 colony forming units (CFU) S. aureus Smith in 7% mucin. One hour later, the animals were given prodrug or Compound 1 intravenously or orally in a dose volume of 0.1 mL/10 g body weight. Each group consisted of eight animals. The prodrugs were prepared immediately before dosing in 40 mM sodium citrate buffer, pH 4. Compound 1 was prepared in 20% HPβCD and warmed until dissolved (IV dosing) or in 0.5% methocel (PO dosing) as a suspension. The mice were observed over a three day period and ED50 values were calculated from the resulting % survival curves (Table 2). The term “ND” means not determined. The prodrug ED50 values were normalized to the content of Compound 1.

Data set [2] is described as follows: Prodrug Solubility (visual inspection in buffer). Type of data set: physicochemical. The following applies: aqueous buffer, thermodynamic from solid. Here is the method: One mg of each compound was diluted with at least 100 μl of the designated buffer, vortexed vigorously for approximately 1 minute, and visually inspected. Sodium citrate (40 mM) was buffered to pH 4 and phosphate-buffered saline was buffered to pH 7. Solutions with no remaining particles were recorded with a solubility ≧to the starting concentration. Compound suspensions were further diluted in 0.1 mL increments followed by vortexing as above, until the prodrug was dissolved. Solubilities of prodrugs ranged from 1.0 mg/ml to >10 mg/ml. The term “ND” means not determined.

Data set [3] in a line: Pharmacokinetics of Prodrugs in Animal Models, all species tested (summary). Format: in vivo, mice, rats, or dogs. The following applies: for PK parameters, normalized to the dose, compared with the respective parameters for Compound 1: all species tested (Table 3a-3d); for conversion of the prodrug form in vivo: all species tested, inferred from PK parameters. Here is the method:
Animals were weighed and given the prodrug intravenously (mice, rats, or dogs) or orally (mice). The prodrugs were prepared immediately before dosing in 40 mM sodium citrate buffer, pH 4. Compound 1 was prepared in 20% HPβCD and warmed until dissolved (IV dosing), or in 0.5% methocel as a suspension (PO dosing). At 0, 0.08, 0.25, 0.5, 1, 2, 4, 6, 8, and 24 hours, blood was removed (via cardiac puncture in euthanized mice, via orbital sinus puncture in anesthetized rats, or via cephalic vein in conscious dogs) and 200 µL of the plasma supernatant was immediately frozen (−70° C.).
On the day of analysis, the samples were thawed on ice and 100 μL was diluted with 200 μL of acetonitrile. The samples were vortexed and then centrifuged at 3000×g for 5 minutes to pellet the precipitated plasma proteins. The supernatant was analyzed by HPLC, or by LC-MS-MS. A standard curve was constructed by spiking a known quantity of Compound 1 into plasma and then performing serial dilutions in the range of 0.01 to 10 μg/mL. Pharmacokinetic (PK) parameters were calculated by WinNonlin Pro, version 3.1.
The term “ND” means not determined. The term “NA” means not applicable. The dose of each prodrug was normalized to the Compound 1 dose. The values of the PK parameters for the prodrug form for Compounds 4a and 21a are based on the resulting accumulation and elimination of Compound 1.

[4] abbreviates: 40 mM sodium citrate buffer, Sodium citrate (40 mM) pH 4, read-out: Solubility Sodium Citrate.
[5] abbreviates: phosphate-buffered saline pH 7, read-out: Solubility Saline.

The solubility is how much of the substance goes into solution per volume. As a reminder, the ED50 is the midpoint of the dose-response relation.

The structures appear in SMILES notation. Converted amounts (≈) assume the structure as drawn. Like-named read-outs stand apart in the source and are kept apart here. Where only a bound is given, the exact number is not on record here.

In data set [1], `CC(=O)NC[C@H]1CN(c2ccc(N3Cc4cn(C)nc4C3)c(F)c2)C(=O)O1` [Compound 1] had a solubility at 24 h of 7 µg/mL (≈ 0.0187 mM). For the same compound, the ED50 in the data set on S. aureus Smith (dosed intravenously one hour later, read-out: ED50 (95% Fiducial Limits) IV) was 3.3 mg/kg; in the data set on S. aureus Smith (dosed orally one hour later, read-out: ED50 (95% Fiducial Limits) PO), 3.5 mg/kg.
For the compound `CC(=O)N(C[C@H]1CN(c2ccc(N3Cc4cn(C)nc4C3)c(F)c2)C(=O)O1)C(=O)OCOC(=O)CN1CCNCC1` [Compound 4a, Piperazin-1-yl-acetic acid (acetyl-{(R)-3-[3-fluoro-4-(2-methyl-2,6-dihydro-4H-pyrrolo[3,4-c]pyrazol-5-yl)-phenyl]-2-oxo-oxazolidin-5-ylmethyl}-carbamoyloxy)-methyl ester], in data set [2] (setting [4]), the solubility at 1 min was not below 10000 µg/mL. Further, the solubility at 1 min in data set [2] (setting [5]) was not below 10000 µg/mL. Further, in data set [3], the “PK parameters, normalized to the dose, compared with the respective parameters for Compound 1” value is on record as “similar” and the “conversion of the prodrug form in vivo” value was “rapidly converted in vivo to Compound 1”.
As to `CC(=O)N(C[C@H]1CN(c2ccc(N3Cc4cn(C)nc4C3)c(F)c2)C(=O)O1)C(=O)OC(C)OC(=O)CN1CCNCC1` (stereo partly drawn) [Compound 4b, Piperazin-1-yl-acetic acid 1-(acetyl-{(R)-3-[3-fluoro-4-(2-methyl-2,6-dihydro-4H-pyrrolo[3,4-c]pyrazol-5-yl)-phenyl]-2-oxo-oxazolidin-5-ylmethyl}-carbamoyloxy)-ethyl ester], in data set [2] (setting [4]), the solubility at 1 min was not below 7500 µg/mL.
For the compound `CC(=O)N(C[C@H]1CN(c2ccc(N3Cc4cn(C)nc4C3)c(F)c2)C(=O)O1)C(=O)OCOC(=O)CN(C)C` [Compound 5, Dimethylamino-acetic acid (acetyl-{(R)-3-[3-fluoro-4-(2-methyl-2,6-dihydro-4H-pyrrolo[3,4-c]pyrazol-5-yl)-phenyl]-2-oxo-oxazolidin-5-ylmethyl}-carbamoyloxy)-methyl ester], the solubility at 1 min in data set [2] (setting [4]) and in data set [2] (setting [5]) was not below 10000 µg/mL each time.
As to `CC(=O)N(C[C@H]1CN(c2ccc(N3Cc4cn(C)nc4C3)c(F)c2)C(=O)O1)C(=O)OCOC(=O)CN1CCOCC1` [Compound 6, Morpholin-4-yl-acetic acid (acetyl-{(R)-3-[3-fluoro-4-(2-methyl-2,6-dihydro-4H-pyrrolo[3,4-c]pyrazol-5-yl)-phenyl]-2-oxo-oxazolidin-5-ylmethyl}-carbamoyloxy)-methyl ester], the solubility at 1 min in data set [2] (setting [4]) is 2500 µg/mL (≈ 4.35 mM); in data set [2] (setting [5]) it was 1000 µg/mL (≈ 1.74 mM).
Regarding `CC(=O)N(C[C@H]1CN(c2ccc(N3Cc4cn(C)nc4C3)c(F)c2)C(=O)O1)C(=O)OCOC(=O)CN1CCN(C)CC1` [Compound 8, (4-Methyl-piperazin-1-yl)-acetic acid (acetyl-{(R)-3-[3-fluoro-4-(2-methyl-2,6-dihydro-4H-pyrrolo[3,4-c]pyrazol-5-yl)-phenyl]-2-oxo-oxazolidin-5-ylmethyl}-carbamoyloxy)-methyl ester], the solubility at 1 min in data set [2] (setting [4]) and in data set [2] (setting [5]) was not below 10000 µg/mL in each case.
Turning to `CNCC(=O)OCOC(=O)N(C[C@H]1CN(c2ccc(N3Cc4cn(C)nc4C3)c(F)c2)C(=O)O1)C(C)=O` [Compound 10, Methylamino-acetic acid (acetyl-{(R)-3-[3-fluoro-4-(2-methyl-2,6-dihydro-4H-pyrrolo[3,4-c]pyrazol-5-yl)-phenyl]-2-oxo-oxazolidin-5-ylmethyl}-carbamoyloxy)-methyl ester], the solubility at 1 min in data set [2] (setting [4]) and in data set [2] (setting [5]) was not below 10000 µg/mL in each case.
On to `CC(=O)N(C[C@H]1CN(c2ccc(N3Cc4cn(C)nc4C3)c(F)c2)C(=O)O1)C(=O)OCOP(=O)(O)O` [Compound 18a, Acetyl-{(R)-3-[3-fluoro-4-(2-methyl-2,6-dihydro-4H-pyrrolo[3,4-c]pyrazol-5-yl)-phenyl]-2-oxo-oxazolidin-5-ylmethyl}-carbamic acid phosphonooxymethyl ester], for which the solubility at 1 min in data set [2] (setting [4]) and in data set [2] (setting [5]) was not below 2000 µg/mL each time.
On to `CCOP(=O)(O)OCOC(=O)N(C[C@H]1CN(c2ccc(N3Cc4cn(C)nc4C3)c(F)c2)C(=O)O1)C(C)=O` [Compound 21a, Acetyl-{(R)-3-[3-fluoro-4-(2-methyl-2,6-dihydro-4H-pyrrolo[3,4-c]pyrazol-5-yl)-phenyl]-2-oxo-oxazolidin-5-ylmethyl}-carbamic acid ethoxy-hydroxy-phosphoryloxymethyl ester], for which, in data set [2] (Sodium citrate (40 mM) pH 4, read-out: Solubility Sodium Citrate), the solubility at 1 min is not below 10000 µg/mL. In data set [2] (setting [5]), the solubility at 1 min is not below 10000 µg/mL. In addition, in data set [3], the “PK parameters, normalized to the dose, compared with the respective parameters for Compound 1” value is given as “similar” and the “conversion of the prodrug form in vivo” value is reported as “rapidly converted in vivo to Compound 1”.
As for `CC(=O)N(C[C@H]1CN(c2ccc(N3Cc4cn(C)nc4C3)c(F)c2)C(=O)O1)C(=O)OCOC(=O)COP(=O)(O)O` [Compound 24, Phosphonooxy-acetic acid (acetyl-{(R)-3-[3-fluoro-4-(2-methyl-2,6-dihydro-4H-pyrrolo[3,4-c]pyrazol-5-yl)-phenyl]-2-oxo-oxazolidin-5-ylmethyl}-carbamoyloxy)-methyl ester], the solubility at 1 min in data set [2] (setting [4]) is not below 5000 µg/mL.
